One data set deals with parental HEK cells. As to the kind of experiment: HEK parental Agonist Counterscreen Assay (non-transfected cells). The format is cell-based. Conditions: for Averaged Max % Response (±St. Dev.): activity relative to known control. The source says:
The high control for the agonist counterscreen was Forskolin not acetylcholine.
For orientation: A counterscreen serves to expose hits that act by an unwanted route or on another target.

The target in the next data set is T1, GPR139 (Homo sapiens, UniProt Q6DWJ6).
T1 sequence (Q6DWJ6 1-353): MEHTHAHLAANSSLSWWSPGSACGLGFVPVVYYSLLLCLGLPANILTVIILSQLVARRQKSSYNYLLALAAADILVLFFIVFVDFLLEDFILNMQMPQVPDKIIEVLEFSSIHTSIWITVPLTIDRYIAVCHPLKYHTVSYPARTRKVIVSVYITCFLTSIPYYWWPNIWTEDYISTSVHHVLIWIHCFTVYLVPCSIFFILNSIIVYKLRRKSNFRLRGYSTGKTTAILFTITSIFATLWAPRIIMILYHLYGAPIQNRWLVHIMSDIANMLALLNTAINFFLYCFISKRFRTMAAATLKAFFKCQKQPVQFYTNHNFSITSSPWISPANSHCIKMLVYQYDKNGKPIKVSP
As to the kind of experiment: GPR139 Agonist titration / agonist counterscreen assay (calcium detection, HEK-GPR139 cells). The format is cell-based. Conditions: GPR139 Agonist Activity; for EC50: read-out: EC50; for Averaged Max % Response (±St. Dev.): activity relative to known control. Also on record: expressed in transfected cells; host or cells: HEK Aequorin cells, Maxcyte transient transfection. As to the method: GPR activity was assessed using a calcium detection assay. […] Negative control samples were treated with DMSO. […] Intracellular calcium was measured using Calcium 5.

The mark [1] stands for this setting: HEK Agonist Activity section of Table 4 (parental HEK counterscreen).
[2] abbreviates: Homo sapiens, HEK293, HEK Agonist Activity section of Table 4 (parental HEK counterscreen).
[3] abbreviates: values printed in E-notation without unit.
Setting [4] is: Homo sapiens, HEK293, HEK Agonist Activity, parental non-transfected HEK cells.

The results in this text go back to patent US20250099420A1, “SMALL MOLECULE MODULATORS OF GPR139 COMPLEX” (University of Florida Research Foundation, Incorporated, priority 2022, published 2025).

Like-named read-outs stand apart in the source and are kept apart here. A value given as a limit tells only on which side of the number the result lay.

`CCOC(=O)c1cccc(NC(=O)Cc2cccc3ccccc23)c1` [SR-01000267161]: in the data set on parental HEK cells (HEK Agonist Activity section), the “Lipophilic Efficiency (logD)” value is 0.46, the “Lipophilic Efficiency (logP)” value came to 0.46 and the “Averaged Max % Response (±St. Dev.)” value is recorded as 13.91 ± 0.63%. In the data set with parental HEK cells (setting [1]), the EC50 was over 14100 nM. Besides, at GPR139, the “Efficiency Ligand” value was 0.33, the “Hill Slope” value is given as 0.55, the “Lipophilic Efficiency (logD)” value was 1.49 and the “Lipophilic Efficiency (logP)” value is listed as 1.49. Moreover, the “Averaged Max % Response (±St. Dev.)” value at GPR139 came out at 105.03 ± 11.34%. Further, the EC50 on GPR139 (HEK-GPR139 cells) worked out at 1300 nM.

Consider `COc1ccc(C2(C)NC(=O)N(CC(=O)NCc3ccc(F)cc3)C2=O)cc1` (stereo not shown) [SR-01000918720], for which the “Lipophilic Efficiency (logD)” value in the data set on parental HEK cells (HEK Agonist Activity section) is on record as 3.10; on GPR139 (based on logD), 5.56. Further, the “Lipophilic Efficiency (logP)” value in the data set on parental HEK cells (HEK Agonist Activity section) was 3.10; on GPR139 (based on logP), 5.56. The “Averaged Max % Response (±St. Dev.)” value with parental HEK cells (HEK Agonist Activity section) was found to be 24.77 ± 3.77%; at GPR139 it was 107.14 ± 13.14%. Further, the EC50 was over 14100 nM in the data set with parental HEK cells (setting [2]) and 48.9 nM at GPR139 (setting [3]). The “Hill Slope” value on GPR139 (fitted dose-response curve) is reported as 0.42. Also, the “Efficiency Ligand” value on GPR139 (ligand efficiency) was found to be 0.37.

With `CCCn1c(CCC(=O)NCCc2ccc(OCC)cc2)nc2cccnc21` [SR-01000077930], the “Lipophilic Efficiency (logD)” value with parental HEK cells (HEK Agonist Activity) is recorded as 1.76; on GPR139 (based on logD), 4.55. For the same compound, the “Lipophilic Efficiency (logP)” value in the data set with parental HEK cells (HEK Agonist Activity) turned out to be 1.76; on GPR139 (based on logP) it was 4.55. Further, the “Averaged Max % Response (±St. Dev.)” value came out at 1.00 ± 2.79% in the data set with parental HEK cells (HEK Agonist Activity) and 102.55 ± 5.37% at GPR139. The results for the EC50 in the data set with parental HEK cells (setting [4]) and at GPR139 (setting [3]) were over 14100 nM and 22.8 nM, respectively. On GPR139 (fitted dose-response curve), the “Hill Slope” value came to 0.67. Also, the “Efficiency Ligand” value on GPR139 (ligand efficiency) was determined as 0.38.

Take `Cc1cccc(C(=O)NNC(=O)C(C)Oc2ccc(O)cc2O)c1` (stereo not shown) [SR-01000410744]: the “Lipophilic Efficiency (logD)” value came to 0.98 with parental HEK cells (HEK Agonist Activity) and 5.27 at GPR139 (based on logD). Moreover, the “Lipophilic Efficiency (logP)” value with parental HEK cells (HEK Agonist Activity) is reported as 0.95; on GPR139 (based on logP), 5.24. In addition, the figures for the “Averaged Max % Response (±St. Dev.)” value in the data set on parental HEK cells (HEK Agonist Activity) and at GPR139 were 17.10 ± 14.93% and 114.68 ± 11.76%, respectively. In addition, the EC50 was over 10200 nM with parental HEK cells (setting [4]) and under 0.517 nM on GPR139 (setting [3]). In addition, the “Efficiency Ligand” value at GPR139 (ligand efficiency) turned out to be 0.54.

Consider `O=C(CCc1nc2cccnc2n1Cc1cccs1)NCc1ccc2c(c1)OCO2` [SR-01000151666], for which the “Lipophilic Efficiency (logD)” value with parental HEK cells (HEK Agonist Activity section) came out at 1.87; on GPR139 (based on logD), 4.24. Further, the “Lipophilic Efficiency (logP)” value is 1.87 in the data set with parental HEK cells (HEK Agonist Activity section) and 4.24 on GPR139 (based on logP). Also, the “Averaged Max % Response (±St. Dev.)” value in the data set with parental HEK cells (HEK Agonist Activity section) is on record as −3.95 ± 11.76%; on GPR139 it was 107.14 ± 25.50%. In addition, the EC50 is over 14100 nM in the data set with parental HEK cells (setting [2]) and 60.3 nM on GPR139 (setting [3]). For the same compound, the “Hill Slope” value at GPR139 (fitted dose-response curve) came out at 0.74. Besides, at GPR139 (ligand efficiency), the “Efficiency Ligand” value is 0.34.

Regarding `Cc1ccc(CCNC(=O)Cn2cc3c(n2)CCCCC3)cc1` [SR-01000088477], the “Lipophilic Efficiency (logD)” value worked out at 1.26 in the data set on parental HEK cells (HEK Agonist Activity) and 4.18 at GPR139 (based on logD). Further, the entries for the “Lipophilic Efficiency (logP)” value in the data set with parental HEK cells (HEK Agonist Activity) and at GPR139 (based on logP) were 1.26 and 4.18, respectively. Moreover, the entries for the “Averaged Max % Response (±St. Dev.)” value with parental HEK cells (HEK Agonist Activity) and at GPR139 were −0.30 ± 8.57% and 120.85 ± 28.06%, respectively. In addition, the EC50 in the data set on parental HEK cells (setting [4]) is over 14100 nM. Besides, the “Hill Slope” value on GPR139 (fitted dose-response curve) turned out to be 0.72. Also, on GPR139 (ligand efficiency), the “Efficiency Ligand” value is reported as 0.47.

Take `O=C(Cn1ccc2ccccc21)NCCCC(=O)Nc1cccc2cccnc12` [SR-01000926510]: in the data set on parental HEK cells (HEK Agonist Activity section), the “Lipophilic Efficiency (logD)” value is 2.07, the “Lipophilic Efficiency (logP)” value worked out at 2.07 and the “Averaged Max % Response (±St. Dev.)” value was 9.24 ± 7.87%. For the same compound, in the data set with parental HEK cells (setting [2]), the EC50 is over 14100 nM. At GPR139, the “Efficiency Ligand” value came to 0.30, the “Hill Slope” value is 0.38, the “Lipophilic Efficiency (logD)” value was found to be 3.52 and the “Lipophilic Efficiency (logP)” value was found to be 3.52. Further, the “Averaged Max % Response (±St. Dev.)” value on GPR139 is listed as 89.57 ± 9.18%. Moreover, the EC50 at GPR139 (HEK-GPR139 cells) came to 490 nM.

Turning to `CCCCC(=O)OCC(=O)NCc1ccc(C)cc1` [SR-01000042109], in the data set with parental HEK cells (HEK Agonist Activity section), the “Lipophilic Efficiency (logD)” value came out at 2.18, the “Lipophilic Efficiency (logP)” value is reported as 2.18 and the “Averaged Max % Response (±St. Dev.)” value was found to be 21.12 ± 3.06%. In addition, the EC50 with parental HEK cells (setting [2]) is over 15000 nM. Besides, at GPR139, the “Efficiency Ligand” value is recorded as 0.47, the “Hill Slope” value was found to be 1.40, the “Lipophilic Efficiency (logD)” value came out at 3.80 and the “Lipophilic Efficiency (logP)” value was found to be 3.80. Besides, the “Averaged Max % Response (±St. Dev.)” value at GPR139 is listed as 92.84 ± 12.11%. Moreover, on GPR139 (HEK-GPR139 cells), the concentration for a half-maximal effect (EC50) is 363 nM.

Turning to `Cc1cccc(OCC(=O)NNC(=O)C(C)Oc2ccc(Cl)cc2Cl)c1` (stereo not shown) [SR-01000318010], the “Lipophilic Efficiency (logD)” value in the data set with parental HEK cells (HEK Agonist Activity section) came to 1.19; on GPR139 (based on logD), 3.32. The “Lipophilic Efficiency (logP)” value with parental HEK cells (HEK Agonist Activity section) came to 1.15; on GPR139 (based on logP) it was 3.28. Besides, the EC50 in the data set on parental HEK cells (setting [1]) was over 14100 nM; at GPR139 (setting [3]), 103 nM. Besides, the “Averaged Max % Response (±St. Dev.)” value turned out to be 12.20 ± 3.74% with parental HEK cells (HEK Agonist Activity section) and 90.09 ± 14.61% on GPR139. Also, the “Hill Slope” value on GPR139 (fitted dose-response curve) came out at 1.08. Also, the “Efficiency Ligand” value on GPR139 (ligand efficiency) came to 0.38.

Consider `O=C(NCc1csc(-c2cccs2)n1)C1CC(Cc2ccc3c(c2)OCO3)=NO1` (stereo not shown) [SR-01000187428], for which the “Lipophilic Efficiency (logD)” value came to 1.59 with parental HEK cells (HEK Agonist Activity section) and 3.43 at GPR139 (based on logD). Further, the “Lipophilic Efficiency (logP)” value in the data set with parental HEK cells (HEK Agonist Activity section) is recorded as 1.59; at GPR139 (based on logP), 3.43. For the same compound, the entries for the “Averaged Max % Response (±St. Dev.)” value with parental HEK cells (HEK Agonist Activity section) and at GPR139 were 6.44 ± 5.26% and 99.03 ± 14.80%, respectively. In addition, the EC50 with parental HEK cells (setting [2]) was over 14100 nM; on GPR139 (setting [3]), 201 nM. Besides, the “Hill Slope” value on GPR139 (fitted dose-response curve) amounted to 1.55. Also, on GPR139 (ligand efficiency), the “Efficiency Ligand” value was 0.32.

On to `CC(C)(C)OC(=O)NNC(=O)COCc1ccc(Cl)c(Cl)c1` [SR-01000074687], for which the “Lipophilic Efficiency (logD)” value is listed as 1.33 with parental HEK cells (HEK Agonist Activity section) and 3.63 at GPR139 (based on logD). In addition, the entries for the “Lipophilic Efficiency (logP)” value with parental HEK cells (HEK Agonist Activity section) and on GPR139 (based on logP) were 1.32 and 3.62, respectively. The “Averaged Max % Response (±St. Dev.)” value is 17.98 ± 4.87% in the data set on parental HEK cells (HEK Agonist Activity section) and 90.02 ± 17.44% at GPR139. Further, the 50% effective concentration (EC50) in the data set with parental HEK cells (setting [2]) is over 15400 nM; on GPR139 (setting [3]) it was 77.1 nM. At GPR139 (fitted dose-response curve), the “Hill Slope” value turned out to be 0.77. In addition, on GPR139 (ligand efficiency), the “Efficiency Ligand” value is recorded as 0.45.

Consider `CC(NC(=O)Cn1cc(NC(=O)c2ccccc2F)cn1)c1ccccc1Cl` (stereo not shown) [SR-01000194602], for which the “Lipophilic Efficiency (logD)” value in the data set with parental HEK cells (HEK Agonist Activity) is given as 1.58; at GPR139 (based on logD), 4.44. Further, the figures for the “Lipophilic Efficiency (logP)” value in the data set with parental HEK cells (HEK Agonist Activity) and on GPR139 (based on logP) were 1.58 and 4.44, respectively. The “Averaged Max % Response (±St. Dev.)” value in the data set with parental HEK cells (HEK Agonist Activity) was found to be 4.93 ± 4.93%; on GPR139, 94.95 ± 1.55%. The half-maximal effective concentration (EC50) in the data set on parental HEK cells (HEK Agonist Activity, parental non-transfected HEK cells) was over 14100 nM; at GPR139 (setting [3]) it was 19.1 nM. In addition, the “Hill Slope” value at GPR139 (fitted dose-response curve) was found to be 0.71. Also, the “Efficiency Ligand” value at GPR139 (ligand efficiency) is given as 0.39.

One may read the EC50 as the midpoint of the concentration-response curve.
